Source: patent US20240000872A1, “NOVEL BACTERIOPHAGE THAT LYSES ACINETOBACTER GENUS BACTERIA HAVING RESISTANCE TO ANTIBIOTICS” (priority 2020, published 2024)

System: Acinetobacter baumannii strains
Assay: Antibiotic susceptibility test (CLSI disk diffusion test method, read per CLSI 2016)
Type: cell-based
Description: (§1) Strain identification was performed using a kit such as AT 32 GN system (bioMérieux, Marcy l'Etoile, France). […] In Table 2 below, S, I, and R are the results obtained by evaluating susceptibility to the antibacterial agents, in which ‘S’ means susceptible, ‘I’ means intermediate, and ‘R’ means resistant.
as §1, with “as ATB” for “as AT”, “system (bioMédrieux,” for “system (bioMérieux,”, “Table 6” for “Table 2”
as §1, with “as ATB” for “as AT”, “Table 10” for “Table 2”, “susceptible, T” for “susceptible, ‘I’”

C[C@@H](O)[C@H]1C(=O)N2C(C(=O)O)=C(SCCN=CN)C[C@H]12 [Imipenem, imipenem]
antibiotic susceptibility class (host strain YMC14/01/C29): R
antibiotic susceptibility class (host strain YMC14/01/IP122): R
antibiotic susceptibility class (host strain YMC14/01/L8): R
antibiotic susceptibility class (host strain YMC14/01/P31): R
antibiotic susceptibility class (host strain YMC14/01/P117): R
antibiotic susceptibility class (host strain YMC14/01/P224): R
antibiotic susceptibility class (host strain YMC14/01/P727): R
antibiotic susceptibility class (host strain YMC14/01/P728): R
antibiotic susceptibility class (host strain YMC14/01/R130): R
antibiotic susceptibility class (host strain YMC14/01/R160): R
antibiotic susceptibility class (host strain YMC14/01/R198): R
antibiotic susceptibility class (host strain YMC14/01/R257): R
antibiotic susceptibility class (host strain YMC14/01/R270): R
antibiotic susceptibility class (host strain YMC14/01/R324): R
antibiotic susceptibility class (host strain YMC14/01/R443): R
antibiotic susceptibility class (host strain YMC14/01/R451): R
antibiotic susceptibility class (host strain YMC14/01/R560): R
antibiotic susceptibility class (host strain YMC14/01/R617): R
antibiotic susceptibility class (host strain YMC14/01/R671): R
antibiotic susceptibility class (host strain YMC14/01/R732): R
antibiotic susceptibility class (host strain YMC14/01/R767): R
antibiotic susceptibility class (host strain YMC14/01/R904): R
antibiotic susceptibility class (host strain YMC14/01/R905): R
antibiotic susceptibility class (host strain YMC14/01/R921): R
antibiotic susceptibility class (host strain YMC14/01/R941): R
antibiotic susceptibility class (host strain YMC14/01/R958): R
antibiotic susceptibility class (host strain YMC14/01/R1006): R
antibiotic susceptibility class (host strain YMC14/01/R1199): R
antibiotic susceptibility class (host strain YMC14/01/R1659): R
antibiotic susceptibility class (host strain YMC14/01/R1722): R
antibiotic susceptibility class (host strain YMC14/01/R1752): R
antibiotic susceptibility class (host strain YMC14/01/R2429): R
antibiotic susceptibility class (host strain YMC14/01/R2572): R
antibiotic susceptibility class (host strain YMC14/01/R2855): R
antibiotic susceptibility class (host strain YMC14/01/R2945): R
antibiotic susceptibility class (host strain YMC14/01/R3007): R
antibiotic susceptibility class (host strain YMC14/01/R3129): R
antibiotic susceptibility class (host strain YMC14/01/R3317): R
antibiotic susceptibility class (host strain YMC14/01/R3474): R
antibiotic susceptibility class (host strain YMC14/01/R3574): R
antibiotic susceptibility class (host strain YMC14/01/U313): R
antibiotic susceptibility class (host strain YMC14/01/U318): R
antibiotic susceptibility class (host strain YMC14/02/L18): R
antibiotic susceptibility class (host strain YMC14/02/P47): R
antibiotic susceptibility class (host strain YMC14/02/R1860): R
antibiotic susceptibility class (host strain YMC14/02/R2417): R
antibiotic susceptibility class (host strain YMC14/02/R2599): R
antibiotic susceptibility class (host strain YMC14/02/R2668): R
antibiotic susceptibility class (host strain YMC14/02/R2758): R
antibiotic susceptibility class (host strain YMC14/02/R2781): R
antibiotic susceptibility class (host strain YMC14/02/R3106): R
antibiotic susceptibility class (host strain YMC14/02/R3419): R
antibiotic susceptibility class (host strain YMC14/02/U1607): R
antibiotic susceptibility class (host strain YMC14/03/L9): R
antibiotic susceptibility class (host strain YMC14/03/P471): R
antibiotic susceptibility class (host strain YMC14/03/R122): R
antibiotic susceptibility class (host strain YMC14/03/R217): R
antibiotic susceptibility class (host strain YMC14/03/R380): R
antibiotic susceptibility class (host strain YMC14/03/R618): R
antibiotic susceptibility class (host strain YMC14/03/R2144): R
antibiotic susceptibility class (host strain YMC14/03/U4616): R
antibiotic susceptibility class (host strain YMC14/04/R1078): R
antibiotic susceptibility class (host strain YMC14/04/R1080): R
antibiotic susceptibility S/I/R (host strain YMC14/06/R2359): R
susceptibility category (S/I/R) (host strain YMC14/06/R2359): R
antibiotic susceptibility S/I/R (host strain YMC14/08/R1169): R
susceptibility category (S/I/R) (host strain YMC14/08/R1169): R
antibiotic susceptibility S/I/R (host strain YMC14/08/T90): R
susceptibility category (S/I/R) (host strain YMC14/08/T90): R
antibiotic susceptibility S/I/R (host strain YMC15/02/R436): R
susceptibility category (S/I/R) (host strain YMC15/02/R436): R
antibiotic susceptibility S/I/R (host strain YMC15/02/T28): R
susceptibility category (S/I/R) (host strain YMC15/02/T28): R
antibiotic susceptibility S/I/R (host strain YMC15/03/R1604): R
susceptibility category (S/I/R) (host strain YMC15/03/R1604): R
antibiotic susceptibility S/I/R (host strain YMC15/09/R1869): R
susceptibility category (S/I/R) (host strain YMC15/09/R1869): R
antibiotic susceptibility S/I/R (host strain YMC16/01/P11): R
susceptibility category (S/I/R) (host strain YMC16/01/P11): R
antibiotic susceptibility S/I/R (host strain YMC16/01/R123): R
susceptibility category (S/I/R) (host strain YMC16/01/R123): R
antibiotic susceptibility S/I/R (host strain YMC16/01/R198): R
susceptibility category (S/I/R) (host strain YMC16/01/R198): R
antibiotic susceptibility S/I/R (host strain YMC16/01/R353): R
susceptibility category (S/I/R) (host strain YMC16/01/R353): R
antibiotic susceptibility S/I/R (host strain YMC16/01/R380): R
susceptibility category (S/I/R) (host strain YMC16/01/R380): R
antibiotic susceptibility S/I/R (host strain YMC16/01/R397): R
susceptibility category (S/I/R) (host strain YMC16/01/R397): R
antibiotic susceptibility S/I/R (host strain YMC16/01/R405): R
susceptibility category (S/I/R) (host strain YMC16/01/R405): R
antibiotic susceptibility S/I/R (host strain YMC16/03/R4461): R
susceptibility category (S/I/R) (host strain YMC16/03/R4461): R
antibiotic susceptibility S/I/R (host strain YMC16/05/R2210): R
susceptibility category (S/I/R) (host strain YMC16/05/R2210): R
antibiotic susceptibility S/I/R (host strain YMC16/07/R2512): R
susceptibility category (S/I/R) (host strain YMC16/07/R2512): R
antibiotic susceptibility S/I/R (host strain YMC16/09/R2471): R
susceptibility category (S/I/R) (host strain YMC16/09/R2471): R
antibiotic susceptibility S/I/R (host strain YMC16/10/R2537): R
susceptibility category (S/I/R) (host strain YMC16/10/R2537): R
antibiotic susceptibility S/I/R (host strain YMC16/12/B11422): R
susceptibility category (S/I/R) (host strain YMC16/12/B11422): R
antibiotic susceptibility S/I/R (host strain YMC16/12/B11449): R
susceptibility category (S/I/R) (host strain YMC16/12/B11449): R
antibiotic susceptibility S/I/R (host strain YMC16/12/B13325): R
susceptibility category (S/I/R) (host strain YMC16/12/B13325): R
antibiotic susceptibility S/I/R (host strain YMC16/12/P503): R
susceptibility category (S/I/R) (host strain YMC16/12/P503): R
antibiotic susceptibility S/I/R (host strain YMC16/12/R4637): R
susceptibility category (S/I/R) (host strain YMC16/12/R4637): R
antibiotic susceptibility S/I/R (host strain YMC17/01/B8053): R
susceptibility category (S/I/R) (host strain YMC17/01/B8053): R
antibiotic susceptibility S/I/R (host strain YMC17/01/B10087): R
susceptibility category (S/I/R) (host strain YMC17/01/B10087): R
antibiotic susceptibility S/I/R (host strain YMC17/01/B12075): R
susceptibility category (S/I/R) (host strain YMC17/01/B12075): R
antibiotic susceptibility S/I/R (host strain YMC17/01/B13454): R
susceptibility category (S/I/R) (host strain YMC17/01/B13454): R
antibiotic susceptibility S/I/R (host strain YMC17/01/P518): R
susceptibility category (S/I/R) (host strain YMC17/01/P518): R
antibiotic susceptibility S/I/R (host strain YMC17/01/R2812): R
susceptibility category (S/I/R) (host strain YMC17/01/R2812): R
antibiotic susceptibility S/I/R (host strain YMC17/02/B14): R
susceptibility category (S/I/R) (host strain YMC17/02/B14): R
antibiotic susceptibility S/I/R (host strain YMC17/02/B87): R
susceptibility category (S/I/R) (host strain YMC17/02/B87): R
antibiotic susceptibility S/I/R (host strain YMC17/02/B721): R
susceptibility category (S/I/R) (host strain YMC17/02/B721): R
antibiotic susceptibility S/I/R (host strain YMC17/02/B4039): R
susceptibility category (S/I/R) (host strain YMC17/02/B4039): R
antibiotic susceptibility S/I/R (host strain YMC17/02/B4520): R
susceptibility category (S/I/R) (host strain YMC17/02/B4520): R
antibiotic susceptibility S/I/R (host strain YMC17/02/B4864): S
susceptibility category (S/I/R) (host strain YMC17/02/B4864): S
antibiotic susceptibility S/I/R (host strain YMC17/02/B8414): R
susceptibility category (S/I/R) (host strain YMC17/02/B8414): R
antibiotic susceptibility S/I/R (host strain YMC17/02/P523): R
susceptibility category (S/I/R) (host strain YMC17/02/P523): R
antibiotic susceptibility S/I/R (host strain YMC17/02/R541): R
susceptibility category (S/I/R) (host strain YMC17/02/R541): R
antibiotic susceptibility S/I/R (host strain YMC17/02/R2392): R
susceptibility category (S/I/R) (host strain YMC17/02/R2392): R
antibiotic susceptibility S/I/R (host strain YMC17/03/B4730): R
susceptibility category (S/I/R) (host strain YMC17/03/B4730): R
antibiotic susceptibility S/I/R (host strain YMC17/03/B5000): R
susceptibility category (S/I/R) (host strain YMC17/03/B5000): R
antibiotic susceptibility S/I/R (host strain YMC17/03/P971): R
susceptibility category (S/I/R) (host strain YMC17/03/P971): R
antibiotic susceptibility S/I/R (host strain YMC17/03/R348): R
susceptibility category (S/I/R) (host strain YMC17/03/R348): R
antibiotic susceptibility S/I/R (host strain YMC17/03/R585): R
susceptibility category (S/I/R) (host strain YMC17/03/R585): R
antibiotic susceptibility S/I/R (host strain YMC17/03/R1888): R
susceptibility category (S/I/R) (host strain YMC17/03/R1888): R
antibiotic susceptibility S/I/R (host strain YMC17/03/R3279): R
susceptibility category (S/I/R) (host strain YMC17/03/R3279): R
antibiotic susceptibility S/I/R (host strain YMC17/03/R4077): R
susceptibility category (S/I/R) (host strain YMC17/03/R4077): R
antibiotic susceptibility S/I/R (host strain YMC17/03/R4607): R
susceptibility category (S/I/R) (host strain YMC17/03/R4607): R
antibiotic susceptibility S/I/R (host strain YMC17/04/R488): R
susceptibility category (S/I/R) (host strain YMC17/04/R488): R
antibiotic susceptibility S/I/R (host strain YMC17/04/R640): R
susceptibility category (S/I/R) (host strain YMC17/04/R640): R
antibiotic susceptibility S/I/R (host strain YMC/17/05/R1095): R
susceptibility category (S/I/R) (host strain YMC/17/05/R1095): R
